Legend:
[1] = test system: TrkB cell surface retention; test: Cell surface retention of TrkB in cortical neurons; assay type: cell-based, rat
Experimental: The cell surface retention of TrkB was measured as previously described[11],[82]. […] For antagonist experiments, cultures were pretreated with M100907 (100 nM) for 10 min and remained present for the rest of the experiment. After washing with PBS and incubating for 1 h with blocking buffer (5% nonfat dry milk and 5% BSA) at room temperature, plates were incubated with goat anti-TrkB antibody (R&D Systems, AF1494; 1:1,000, overnight, 4 °C). After further PBS washes, plates were incubated with HRP-conjugated […] antibody (Bio-Rad, 170–5046; 1:5,000, 1 h, room temperature). Finally, wells were washed with PBS and the chemiluminescent signal was read after brief incubation with Pierce ECL substrate (Thermo Fisher Scientific, 32106).

primary visual cortex = test: Ocular dominance plasticity after monocular deprivation; assay type: in vivo, mouse; settings: ext fig 7b
Experimental: Female and male mice were 17 weeks old at the time of monocular deprivation, since the physiological critical period in the binocular region of the visual cortex is closed by then[85]. […] Briefly, mice were injected with an anesthetic mixture containing 0.05 mg kg^−1 fentanyl (Hameln), 5 mg kg^−1 midazolam (Hameln) and 0.5 mg kg^−1 medetomidine (Orion Pharma) diluted in saline. Eyes were protected from drying with eye-protective gel (Alcon), and the head was shaved and fixed in a stereotaxic frame with a heating pad maintained at 37 °C. A mixture of lidocaine and adrenaline (Orion Pharma) was applied locally on the head, and the scalp above the visual cortex was cut. The periosteum was removed gently, and the skull was rapidly cleaned from fat with acetone. The surface of the skull was covered with a thin layer of cyanoacrylate glue (Henkel, Loctite 401), followed by two layers of acryl, obtained by mixing colorless acrylic powder (EUBECOS) with liquid methacrylate (Densply). […] The signal was recorded from one eye at a time, with the other eye covered by a patch. […] The OD score as (C − I)/(C + I) was calculated, and the ocular dominance index (ODI) was determined as the mean of the OD score for all responsive pixels, as described by Cang et al.[89].

TrkB V437A = target: T1, TrkB V437A (Rattus norvegicus, UniProt Q63604, V437A); test: ^3H-LSD saturation binding, TrkB mutant
T1 construct: expressed in transfected cells; host or cells: HEK293T
Experimental: (§1) Binding assays were performed as previously described with minor modifications. […] Samples from mouse embryo (E18) brains were also lysed, vortexed, sonicated and centrifuged for binding assays. Plates were then washed with PBS. […] For the competition binding assays with biotinylated R,R-HNK, the amino-biotinylation of R,R-HNK was performed using a commercial kit (Thermo Scientific, EZ-Link NHS-PEG4 Biotinylation Kit, 21455) and the reaction monitored by MS. A mixture of biotinylated R,R-HNK (10 µM) and unlabeled compounds (1 pM to 10 µM) in PBS was added to the 96-well plates containing the immunoprecipitated TrkB and incubated for 1 h at room temperature. […] Luminescence was determined via streptavidin conjugated with horseradish peroxidase (HRP; Thermo Fisher Scientific, 21126; 1:5,000, 1 h at room temperature) in reaction with the Pierce ECL substrate (Thermo Fisher Scientific, 32106). Luminescence from blank wells that contained all reagents but the sample lysates was used to determine nonspecific binding. To obtain the binding curves, results from binding assays were fitted to the equation of specific binding with Hill slope from GraphPad Prism 9.2. To calculate koff values, results were fitted to the equation of dissociation of one phase exponential decay from GraphPad Prism 9.2.

TrkB Y433F = target: T2, TrkB Y433F (Rattus norvegicus, UniProt Q63604, Y433F); test: ^3H-LSD saturation binding, TrkB mutant
T2 construct: expressed in transfected cells; host or cells: HEK293T
Experimental: as §1

TrkB S440A = target: T3, TrkB S440A (Rattus norvegicus, UniProt Q63604, S440A); test: ^3H-LSD saturation binding, TrkB mutant
T3 construct: expressed in transfected cells; host or cells: HEK293T

pmTOR = test: Western blot of mTOR phosphorylation in cortical neurons; assay type: cell-based, rat; settings: LSD 100 nM
Experimental: In a separate set of experiments to examine the effect of 5-HT2A activation, M100907 (100 nM) was administered as a 10 min pretreatment and remained in the medium for the rest of the experiment. Next, cells were lysed and centrifuged. […] The co-immunoprecipitation was carried out as previously described[11],[23],[24] with minor modifications. Briefly, Magnetic Dynabeads Protein G (Invitrogen, 10004D) were coated with anti-TrkB antibody (R&D Systems, AF1494) at 200 ng of antibody per 1 µl of beads in rotation (2 h, 4 °C). Finally, lysates were mixed with the coated beads (100 µg of total protein per 15 µl of beads) and incubated in rotation (overnight, 4 °C).
Proteins were separated according to their molecular weight by SDS–PAGE and transferred to a polyvinylidene fluoride membrane. Membranes were incubated with the following primary antibodies (all 1:1,000 in 3% BSA in TBS-T, overnight, 4 °C): anti-TrkB (R&D Systems, AF1494), anti-β-actin (Sigma-Aldrich, A1978), anti-phospho-mTOR (Cell Signaling Technology, 5536S), anti-phospho-p44/42 MAPK (Erk1/2) (Cell Signaling Technology, 9106S), anti-mTOR (Cell Signaling Technology, 2972S) and anti-p44/42 MAPK (Erk1/2) (Cell Signaling Technology, 9102S). […] Protein bands were visualized using enhanced chemiluminescent substrate (Thermo Scientific, 32132, ECL Plus) and imaged with a charge-coupled device camera (G:BOX, Syngene).

TrkB pY816 = test: ELISA of TrkB phosphorylation (pY816) in neuronal cultures; assay type: cell-based, rat; settings: cortical and hippocampal cultures
Experimental: (§2) The phosphorylation of TrkB (pY816) and interaction with PLCγ1 were assessed by enzyme-linked immunosorbent assay (ELISA) as previously described[11],[80],[81] with minor modifications. Briefly, white 96-well plates (PerkinElmer, OptiPlate 96F-HB) were precoated with goat anti-TrkB (R&D systems, AF1494; 1:500, overnight, 4 °C) antibody in carbonate buffer (pH 9.8) and blocked with 3% BSA in PBS with 0.1% Tween-20 (PBS-T) for 2 h at room temperature. […] Samples were incubated overnight at 4 °C, and 24 h later plates were washed with PBS-T and incubated with either rabbit anti-phospho-TrkB(Tyr816) (Cell Signaling Technology, 4168S; 1:2,000), rabbit anti-PLCγ1 (Cell Signaling Technologies, 5690S; 1:2,000) or rabbit anti-Trk (Cell Signaling Technologies, 92991; 1:2,000) antibodies overnight at 4 °C. After washing with PBS-T, plates were incubated with HRP-conjugated goat anti-rabbit (Bio-Rad, 170–5046; 1:5,000, 1 h, room temperature) antibody, followed by more washing with PBS-T. Finally, the chemiluminescent signal was read after brief incubation with Pierce ECL substrate (Thermo Fisher Scientific, 32106). Luminescence from blank wells that contained all reagents but the sample lysates was used to determine background signal.

TrkB = test: Total TrkB expression in PFC and hippocampus after single LSD injection; assay type: in vivo, mouse; settings: PFC or hippocampus, WT or Y433F^+/− mice
Experimental: as §2

mouse TrkB = target: T4, mouse TrkB (Mus musculus, UniProt P15209); test: ^3H-LSD saturation binding to immunoprecipitated TrkB
T4 construct: from tissue; host or cells: mouse embryo (E18) brain
Experimental: as §1

T4 sequence (P15209 32-821): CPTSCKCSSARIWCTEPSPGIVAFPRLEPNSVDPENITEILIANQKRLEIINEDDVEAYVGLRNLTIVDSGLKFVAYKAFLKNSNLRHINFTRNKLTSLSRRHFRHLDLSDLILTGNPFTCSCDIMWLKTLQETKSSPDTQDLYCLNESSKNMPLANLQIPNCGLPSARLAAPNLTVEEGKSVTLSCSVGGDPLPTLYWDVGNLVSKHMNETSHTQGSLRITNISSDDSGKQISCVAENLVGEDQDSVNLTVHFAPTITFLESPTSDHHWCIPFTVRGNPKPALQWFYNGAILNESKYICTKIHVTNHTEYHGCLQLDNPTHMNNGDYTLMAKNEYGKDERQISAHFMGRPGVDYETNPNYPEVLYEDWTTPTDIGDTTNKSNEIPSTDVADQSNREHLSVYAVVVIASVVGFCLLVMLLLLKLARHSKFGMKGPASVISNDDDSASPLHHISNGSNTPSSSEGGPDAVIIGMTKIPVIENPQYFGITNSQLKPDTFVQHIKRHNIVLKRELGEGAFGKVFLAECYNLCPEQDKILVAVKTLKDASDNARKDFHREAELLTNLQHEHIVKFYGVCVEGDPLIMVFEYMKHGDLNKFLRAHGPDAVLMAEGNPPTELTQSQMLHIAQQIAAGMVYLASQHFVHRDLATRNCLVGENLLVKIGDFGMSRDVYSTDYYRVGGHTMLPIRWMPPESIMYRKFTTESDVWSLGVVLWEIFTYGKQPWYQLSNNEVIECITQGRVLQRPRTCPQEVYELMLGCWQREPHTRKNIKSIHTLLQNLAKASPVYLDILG
T1 sequence (Q63604 32-821 V437A): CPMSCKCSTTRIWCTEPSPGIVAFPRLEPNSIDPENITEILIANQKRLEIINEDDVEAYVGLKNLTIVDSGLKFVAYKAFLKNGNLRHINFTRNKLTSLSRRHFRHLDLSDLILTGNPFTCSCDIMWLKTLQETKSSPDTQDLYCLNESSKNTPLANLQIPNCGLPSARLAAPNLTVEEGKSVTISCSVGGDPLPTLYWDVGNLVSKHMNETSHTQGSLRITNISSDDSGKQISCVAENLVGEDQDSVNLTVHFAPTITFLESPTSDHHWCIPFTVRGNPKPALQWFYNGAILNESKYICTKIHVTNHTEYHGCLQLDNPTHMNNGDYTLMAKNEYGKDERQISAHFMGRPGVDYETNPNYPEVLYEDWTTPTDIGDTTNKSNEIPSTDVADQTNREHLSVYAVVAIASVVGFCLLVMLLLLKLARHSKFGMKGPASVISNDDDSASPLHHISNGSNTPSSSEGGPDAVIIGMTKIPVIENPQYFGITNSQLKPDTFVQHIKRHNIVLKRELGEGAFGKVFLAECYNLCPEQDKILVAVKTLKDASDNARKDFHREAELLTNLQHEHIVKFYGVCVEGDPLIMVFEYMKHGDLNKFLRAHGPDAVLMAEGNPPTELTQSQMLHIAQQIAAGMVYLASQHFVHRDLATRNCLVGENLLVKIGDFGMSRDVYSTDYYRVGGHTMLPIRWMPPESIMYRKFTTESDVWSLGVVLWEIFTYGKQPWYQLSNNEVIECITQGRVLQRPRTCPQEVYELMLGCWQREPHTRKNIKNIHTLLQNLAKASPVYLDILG
T3 sequence (Q63604 32-821 S440A): as the sequence (Q63604 32-821 V437A) above, with A406V, S409A counted along it
T2 sequence (Q63604 32-821 Y433F): as the sequence (Q63604 32-821 V437A) above, with Y402F, A406V counted along it

SMILES: CCN(CC)C(=O)C1C=C2c3cccc4[nH]cc(c34)CC2N(C)C1 (centres unmarked) [LSD, lysergic acid diethylamide]
- TrkB cell surface retention [1]: increases TrkB cell surface retention independently of 5-HT2A activation
- Mean ± SEM of column B (IOS II) (primary visual cortex; IOS II (second imaging session), n=10 mice): 0.0300 ± 0.02329, n=10
- Difference between means (IOS II vs. IOS I) (primary visual cortex; column B IOS II vs. column A IOS I, unpaired t test): -0.1640 ± 0.02794
- Bmax (best-fit, 1a) (TrkB V437A): 88.07
- h (best-fit, 1a) (TrkB V437A): 1.581
- Kd (TrkB V437A; Kd (best-fit, 1a), unit inferred): 25.9 nM
- Kd (TrkB V437A; Kd, ^3H-LSD saturation): 25.9 ± 10.6 nM
- Kd (TrkB Y433F; Kd (best-fit, 1a), Y433F, unit inferred): 24.6 nM
- Kd (TrkB Y433F; Kd, ^3H-LSD saturation, Y433F): 24.6 ± 4.68 nM
- Bmax (best-fit, 1a) (TrkB Y433F; Y433F): 91.95
- h (best-fit, 1a) (TrkB Y433F; Y433F): 1.98
- LSD binding (TrkB Y433F; Y433F point mutation): impairs LSD binding
- Kd (TrkB S440A): 0.714 nM
- Bmax (best-fit, 1a) (TrkB S440A; S440A): 114.7
- h (best-fit, 1a) (TrkB S440A; S440A): 1.945
- LSD binding (TrkB S440A; S440A mutation): did not influence LSD binding
- phosphorylation of mTOR (pmTOR): promotes phosphorylation of mTOR for at least 1 h
- TrkB phosphorylation (pY816) (TrkB pY816): increases phosphorylation of TrkB tyrosine 816 (pY816)
- total TrkB expression (TrkB): remain unaffected
- Kd (mouse TrkB): 0.425 ± 0.296 nM
- Bmax (mouse TrkB; ^3H-LSD saturation, mouse TrkB): 7.388 ± 0.771 pmol mg^−1 protein
- Bmax (specific binding with Hill slope, best-fit) (mouse TrkB; ext fig 1b, TRKB.wt, n=2): 117.1
- h (Hill slope, best-fit) (mouse TrkB; ext fig 1b, TRKB.wt, n=2): 0.5552

— publication PMC10244169, “Psychedelics promote plasticity by directly binding to BDNF receptor TrkB” (Nature Neuroscience, 2023)
